Assay results from patent US9676811B2, “Testosterone derivatives with a carboxyalkyl substitution in position 3 and use thereof for the production of labelled steroids for determining the concentration of testosterone in a biological sample” (BIOMERIEUX, priority 2012, dated 2017).

Assays:
Type in all cases: binding
[1] = tested on: anti-testosterone antibody Ab3 (sheep monoclonal IgG, clone testo3.6A3); experiment: VIDAS® competitive testosterone immunoassay, format Ab3 + Conjugate 1 of the invention; settings: for B/B0% / Signal (RFV): conjugate 2.5 ng/ml
Procedure: (§1) Competition then takes place between the testosterone present in the sample and the testosterone derivative of the conjugate for the sites of the anti-testosterone antibody fixed on the cone. The washing steps are carried out with the buffer Tris-NaCl (0.05 mol/l) pH 7.4 or with diethanolamine (1.1 mol/1) pH 9.8 and make it possible to remove the compounds that are not fixed. During the final development step, the substrate 4-methylombelliferyl phosphate is aspirated and then introduced into the cone; the enzyme of the conjugate catalyzes the reaction of hydrolysis of this substrate in 4-methylombelliferone, and the fluorescence emitted from the latter is measured at 450 nm. The value of the fluorescence signal is inversely proportional to the concentration of the testosterone present in the sample. This concentration is calculated relative to a calibration curve.
(§2) For the other assays, we used the reagents of the VIDAS® testosterone kit (Cat. No 30418) and the assay protocol given in the instructions with the kit, with the following modifications: • Cones were sensitized with other anti-testosterone antibodies: 2 mouse monoclonal immunoglobulins G (IgG), the clones 19E10H6 and 15H9H10 (bioMerieux), which will be called Ab1 and Ab2 respectively, and 1 sheep monoclonal IgG, the clone testo3.6A3 (Bioventix), which will be called Ab3. As in the cone of the format of the reference assay, the anti-testosterone antibodies were captured by anti-species polyclonal antibodies adsorbed on the cone beforehand. It is a sheep anti-mouse IgG polyclonal antibody for Ab1 and Ab2, and a donkey anti-sheep IgG polyclonal antibody for Ab3. The anti-species antibodies are diluted to a concentration between 1 and 12 μg/ml in the sensitizing solution. After incubation for 6 h at +18/25° C., washing is carried out with saline solution. Then the solution of anti-testosterone antibodies containing a saturating agent of the protein or peptide type is added (concentration of the antibody: 0.01-0.2 μg/ml). Sensitization/passivation is continued at +18/25° C. overnight. Then the cones are emptied and dried. • The cones sensitized with the antibody Ab1 are tested with the VIDAS® conjugate, diluted to 1/2.5 for the tests with the monoclonal antibody. The cones sensitized with the antibodies Ab2 and Ab3 are tested with conjugate 1 of the invention prepared in example 9. This last-mentioned conjugate is used at a concentration of 3 ng/ml for the tests with the cones sensitized with the antibody Ab2 and 2.5 ng/ml for the cones sensitized with the antibody Ab3. • The conversion to dose is performed based on a standard 10-point range manufactured by supplementing woman's serum with testosterone in ethanolic solution. The nominal concentrations of each of the points are: 0.001 ng/ml-0.03 ng/ml-0.18 ng/ml-0.41 ng/ml-0.76 ng/ml-1.29 ng/ml-1.91 ng/ml-3.82 ng/ml-7.48 ng/ml-11.55 ng/ml. • The sample volume taken for each assay is 200 μl.
(§3) The standard range was measured with each assay format. Table 1 below summarizes the results obtained as RFV signal (relative fluorescence value) and B/B0% ratio, for the dilutions of the standard range. The ratio B/B0 is the signal obtained for the range point tested divided by the signal obtained for the range point 0.001 ng/ml of testosterone, multiplied by 100.

[2] = tested on: anti-testosterone antibody Ab2 (mouse monoclonal IgG, clone 15H9H10); experiment: VIDAS® competitive testosterone immunoassay, format Ab2 + Conjugate 1 of the invention; settings: for B/B0% / Signal (RFV): conjugate 3 ng/ml
Procedure: as §1, §2, §3
Secondly, to confirm that the format Ab2+Conjugate 1 of the invention is far more sensitive than the reference format REF, VIDAS® Testosterone kit, for which the measurement range recommended in the instructions extends from 0.1 to 13 ng/ml, these two formats were compared against serum samples obtained from the Etablissements Français du Sang (the French National Blood Service). These were 4 samples collected from women (codes with F), for whom the serum testosterone level is below 1 ng/ml, and 2 samples collected from men (codes with M). […]

[3] = tested on: sheep anti-testosterone monoclonal antibody clone 3.6A3 (Ab3); experiment: Microplate competitive testosterone immunoassay, Ab3 + Conjugate 2 of the invention, streptavidin-peroxidase/TMB; settings: for B/B0% / OD450-OD630: conjugate 0.2 ng/well
Procedure: 100 μl/well of the mouse anti-goat Fe IgG monoclonal antibody (clone 9A4A5, bioMerieux) diluted to 10 μg/ml in PBS buffer 1× is distributed in a 96-well microplate (Nunc Maxisorp F96). The microplate is incubated overnight at room temperature in order to obtain adsorption of the antibody. The microplate is emptied, and then 300 μl/well of passivating buffer (buffer Tris 0.2 M pH 6.2) containing a saturating agent of the protein or peptide type, and the sheep anti-testosterone monoclonal antibody clone 3.6A3 (Ab3-bioVentix) diluted to 0.2 μg/ml are added. The microplate is incubated for 1 h at 37° C. Three washings are carried out with TBS (Tris buffered saline)-Tween®-20 0.05%. The range points used in example 10 are diluted to 1/2 in Tris buffer; 100 μl of these dilutions are distributed in the wells of the plate. After incubation for 1 h at 37° C., the wells are emptied and 0.2 ng/well of Conjugate 2 of the invention testosterone-3β-EMC-DAP-biotin in Tris buffer is added. The reaction with the conjugate is carried out for 15 minutes at 37° C., and is followed by 3 washings. 100 μl/well of streptavidin-peroxidase solution (Jackson Immunoresearch Cat. No. 016-30-084) diluted to 1/20 000 in TBS-Tween®-20 0.05%, BSA 2% is added and the microplate is incubated for 30 min at 37° C. After 3 washings, 100 μl/well of the 1-step Ultra TMB substrate (Thermo Scientific, Cat. No. 34028) is added and the microplate is incubated for 5 min at room temperature, away from the light. The reaction is then stopped by adding 100 μl of 2M sulfuric acid. The optical density (OD) at 450 nm and at 630 nm is measured in a microplate reader. For each well, the optical density at 630 nm is subtracted from the optical density at 450 nm.

[4] = testosterone 0.001 ng/ml range point
[5] = testosterone 0.03 ng/ml range point
[6] = testosterone 0.18 ng/ml range point
[7] = testosterone 0.41 ng/ml range point
[8] = testosterone 0.76 ng/ml range point
[9] = testosterone 1.29 ng/ml range point
[10] = testosterone 1.91 ng/ml range point
[11] = testosterone 3.82 ng/ml range point
[12] = testosterone 7.48 ng/ml range point
[13] = testosterone 11.55 ng/ml range point
[14] = testosterone 0.001 ng/ml range point (diluted to 1/2)
[15] = testosterone 0.03 ng/ml range point (diluted to 1/2)
[16] = testosterone 0.18 ng/ml range point (diluted to 1/2)
[17] = testosterone 0.41 ng/ml range point (diluted to 1/2)
[18] = testosterone 0.76 ng/ml range point (diluted to 1/2)
[19] = testosterone 1.29 ng/ml range point (diluted to 1/2)
[20] = testosterone 3.82 ng/ml range point (diluted to 1/2)
[21] = testosterone 11.55 ng/ml range point (diluted to 1/2)

In the case of “17β-Hydroxy-3β-Carboxymethoxyandrost-4-ene/Alkaline Phosphatase [Conjugate 1 of the invention]”, the “sensitivity of the assay format (comparison of formats)” value ([1]; FIG. 1) is reported as “most sensitive”, the “testosterone concentration giving a 50% decrease in the signal” value ([1]; from graph of FIG. 1) is reported as “about 0.2 ng/ml” and the B/B0% [1, 4] is reported as 100%. For the same compound, the “Signal (RFV)” value [1, 4] was 3209 RFV, the B/B0% [1, 5] was 78% and the “Signal (RFV)” value [1, 5] was 2492 RFV. For the same compound, the B/B0% [1, 6] was 53%, the “Signal (RFV)” value [1, 6] was 1700 RFV and the B/B0% [1, 7] was 44%. The “Signal (RFV)” value [1, 7] was 1403 RFV, the B/B0% [1, 8] was 40% and the “Signal (RFV)” value [1, 8] was 1286 RFV. For the same compound, the B/B0% [1, 9] was 30%, the “Signal (RFV)” value [1, 9] was 960 RFV and the B/B0% [1, 10] was 31%. For the same compound, the “Signal (RFV)” value [1, 10] was 990 RFV, the B/B0% [1, 11] was 20% and the “Signal (RFV)” value [1, 11] was 644 RFV. The B/B0% [1, 12] was 12%, the “Signal (RFV)” value [1, 12] was 380 RFV and the B/B0% [1, 13] was 6%. For the same compound, the “Signal (RFV)” value [1, 13] was 205 RFV, the “sensitivity of the assay format (comparison of formats)” value ([2]; FIG. 1) was “slightly more sensitive than the reference format” and the B/B0% [2, 4] was 100%. For the same compound, the “Signal (RFV)” value [2, 4] was 4077 RFV, the B/B0% [2, 5] was 86% and the “Signal (RFV)” value [2, 5] was 3490 RFV. The B/B0% [2, 6] was 72%, the “Signal (RFV)” value [2, 6] was 2935 RFV and the B/B0% [2, 7] was 62%. For the same compound, the “Signal (RFV)” value [2, 7] was 2527 RFV, the B/B0% [2, 8] was 55% and the “Signal (RFV)” value [2, 8] was 2238 RFV. The B/B0% [2, 9] was 46%, the “Signal (RFV)” value [2, 9] was 1880 RFV and the B/B0% [2, 10] was 42%. For the same compound, the “Signal (RFV)” value [2, 10] was 1729 RFV, the B/B0% [2, 11] was 31% and the “Signal (RFV)” value [2, 11] was 1264 RFV. For the same compound, the B/B0% [2, 12] was 22%, the “Signal (RFV)” value [2, 12] was 905 RFV and the B/B0% [2, 13] was 16%. For the same compound, the “Signal (RFV)” value [2, 13] was 632 RFV.

For `CC12CC[C@H](OCC(=O)NCCCNC(=O)CCCCC3SCC4NC(=O)NC43)C=C1CCC1C2CCC2(C)C(O)CCC12` (stereo partly drawn) [Conjugate 2 of the invention, 17-β-Hydroxy-3-β-Carboxymethoxyandrost-4-ene/Biotin], the “character of the testosterone assay range versus format Ab2+Conjugate 1 on VIDAS®” value ([3]; FIG. 2) was “comparable”, the “sensitivity of the microplate assay (comparison)” value ([3]; FIG. 2) was “more sensitive than the VIDAS® assays using the VIDAS® Conjugate” and the B/B0% [3, 14] was 100%. For the same compound, the OD450-OD630 [3, 14] was 2.52, the B/B0% [3, 15] was 83% and the OD450-OD630 [3, 15] was 2.10. It also gave a B/B0% [3, 16] of 74%, an OD450-OD630 [3, 16] of 1.88 and a B/B0% [3, 17] of 64%. It also gave an OD450-OD630 [3, 17] of 1.61, a B/B0% [3, 18] of 54% and an OD450-OD630 [3, 18] of 1.36. It also gave a B/B0% [3, 19] of 40%, an OD450-OD630 [3, 19] of 1.00 and a B/B0% [3, 20] of 17%. It also gave an OD450-OD630 [3, 20] of 0.42, a B/B0% [3, 21] of 7% and an OD450-OD630 [3, 21] of 0.17.
